In ChEMBL document CHEMBL1132888, “4,10-Dihydro-4-oxo-4H-imidazo[1,2-a]indeno[1,2-e]pyrazin-2-carboxylic acid derivatives: highly potent and selective AMPA receptors antagonists with in vivo activity” (Bioorg Med Chem Lett, 2000):
pIC50: −log10 of the molar value. The source made the active and inactive calls. The rule behind the calls is not given here.

Assays:
[1] = target: Glutamate receptor ionotropic, kainate; details: oocyte
Mus musculus [2] = assay: Effective dose of the intraperitoneally administered compound required to protect 50% of mice from tonic convulsion caused by maximal electric shock (MES); assay type: functional; details: ip
Mus musculus [3] = assay: Effective dose of the intraperitoneally administered compound required to protect 50% of DBA/2 mice from tonico-clonic convulsion; assay type: functional; details: ip
Glutamate NMDA receptor = assay: Displacement of [3H]DCKA from N-methyl-D-aspartate glutamate receptor of rat cortical membrane
[4] = target: Glutamate receptor ionotropic, AMPA (Rattus norvegicus, UniProt P19490+P19491+P19492+P19493)
Description: Displacement of [3H]AMPA from Ionotropic glutamate receptor AMPA of rat cortical membranes

Mus musculus [5] = assay: Compound tested for sound induced convulsions in DBA/2 mice following ip administration; Compound was active; assay type: functional, organism-based
[6] = target: Glutamate receptor ionotropic, kainate (Rattus norvegicus) (UniProt P22756+Q01812+P42260+P42264+Q63273); assay: Inhibitory activity against generation of currents by 50 uM kainate in Xenopus oocytes injected with rat brain mRNA; assay type: functional, cell-based; details: Oocyte

| SMILES | pIC50 [1] | ED50 (Mus musculus [2]) [mg/kg] | ED50 (Mus musculus [3]) [mg/kg] | pIC50 (Glutamate NMDA receptor) | pIC50 [4] | Activity (Mus musculus [5]) | Kb [6] [µM] |
| --- | --- | --- | --- | --- | --- | --- | --- |
| Oc1nc2c(n3ccnc13)Cc1ccccc1-2 | 5.74 | 62 | – | – | – | – | – |
| CNC(=O)Nc1ccc2c(c1)C(CC(=O)O)c1c-2nc(O)c2nccn12 (racemic) | 8.70 | 1 | 0.9 | 5.00 | – | – | – |
| CCOC(=O)c1cn2c3c(nc(O)c2n1)-c1ccccc1C3 | 6.46 | > 80 | > 80 | 6.70 | 6.68 | – | – |
| CCOC(=O)c1cn2c3c(nc(O)c2n1)-c1ccc(F)cc1C3 | – | > 80 | – | – | 7.26 | – | – |
| CCOC(=O)c1cn2c3c(nc(O)c2n1)-c1ccc(NC(=O)NC)cc1C3 | 8.22 | > 80 | > 20 | 5.00 | 8.05 | – | – |
| NS(=O)(=O)c1cccc2c1c([N+](=O)[O-])cc1nc(O)c(O)nc12 [NBQX] | – | 36 | 13 | < 5.00 | – | – | – |
| CNC(=O)Nc1ccc2c(c1)Cc1c-2nc(O)c2nc(C(=O)O)cn12 | – | 0.7 | 0.5 | 5.36 | 8.05 | Active | 0.00392 |
| O=C(O)c1cn2c3c(nc(O)c2n1)-c1ccccc1C3 | 7.52 | 50 | 20 | – | 6.82 | – | – |
| CN1CCCC12c1ccccc1-c1nc(O)c3nccn3c12 (racemic) | 6.05 | 17 | – | – | – | – | – |
| O=C(O)c1cn2c3c(nc(O)c2n1)-c1ccc(F)cc1C3 | 7.60 | 56 | – | 6.34 | 7.22 | – | – |
| NC(=O)c1cn2c3c(nc(O)c2n1)-c1ccccc1C3 | 5.90 | > 80 | – | 6.14 | 6.32 | – | – |
| O=c1[nH]c2cc(-n3ccnc3)c([N+](=O)[O-])cc2[nH]c1=O [YM-90K] | 6.59 | 12 | 15 | – | – | – | – |
| Nc1ccc2c(c1)Cc1c-2nc(O)c2nc(C(=O)O)cn12 | 6.63 | 80 | – | 5.16 | 6.33 | – | – |
| O=C(O)[C@@H]1C[C@H]2C[C@@H](CCc3nn[nH]n3)CC[C@H]2CN1 [TEZAMPANEL ANHYDROUS] | 6.64 | 4 | – | – | – | – | – |
